Laboratory results reported in ChEMBL document CHEMBL3885881, “DrugMatrix”.

Species: Rattus norvegicus
Assay: DrugMatrix - Regimen: Daily Repeat
Assay type: toxicity, organism-based, Sprague-Dawley
Set-up: regimen Daily Repeat, gender Male, age 6-8 weeks
Details: in vivo, po, 1 mg/kg, route oral GAVAGE, dose level Low, vehicle 100 % WATER; for ABSOLUTE BASOPHIL / ABSOLUTE EOSINOPHIL / ABSOLUTE LYMPHOCYTE / ABSOLUTE MONOCYTE / ABSOLUTE SEGMENTED NEUTROPHIL / BASOPHIL / EOSINOPHIL / ERYTHROCYTE COUNT / HEMATOCRIT / HEMOGLOBIN / LEUKOCYTE COUNT / LYMPHOCYTE / MEAN CORPUSCULAR HEMOGLOBIN / MEAN CORPUSCULAR HEMOGLOBIN CONCENTRATION / MEAN CORPUSCULAR VOLUME / MONOCYTE / NEUTROPHIL / NUCLEATED RED BLOOD CELLS / PLATELET COUNT: tissue Blood; for ALANINE AMINOTRANSFERASE / ALBUMIN / ALKALINE PHOSPHATASE / ASPARTATE AMINOTRANSFERASE / BLOOD UREA NITROGEN / CARBON DIOXIDE / CHLORIDE / CHOLESTEROL / CREATINE PHOSPHOKINASE / CREATININE / GLUCOSE / LACTATE DEHYDROGENASE / LIPASE / PHOSPHORUS / POTASSIUM / SODIUM / TOTAL BILIRUBIN / TOTAL PROTEIN / URIC ACID: tissue Plasma

SMILES: Cc1nccn1CC1CCc2c(c3ccccc3n2C)C1=O (stereo unspecified) [ONDANSETRON]
- ABSOLUTE BASOPHIL (72 h, time 3 day): 0 CELLS/uL
- ABSOLUTE EOSINOPHIL (72 h, time 3 day): 0 CELLS/uL
- ABSOLUTE LYMPHOCYTE (72 h, time 3 day): 12419.33 CELLS/uL
- ABSOLUTE MONOCYTE (72 h, time 3 day): 325.33 CELLS/uL
- ABSOLUTE SEGMENTED NEUTROPHIL (72 h, time 3 day): 1155.33 CELLS/uL
- BASOPHIL (72 h, time 3 day): 0%
- EOSINOPHIL (72 h, time 3 day): 0%
- ERYTHROCYTE COUNT (72 h, time 3 day): 5.53 x10E6/uL
- HEMATOCRIT (72 h, time 3 day): 34.87%
- HEMOGLOBIN (72 h, time 3 day): 13.27 G/DL
- LEUKOCYTE COUNT (72 h, time 3 day): 13.9 x10E3/uL
- LYMPHOCYTE (72 h, time 3 day): 89.33%
- MEAN CORPUSCULAR HEMOGLOBIN (72 h, time 3 day): 24 pg
- MEAN CORPUSCULAR HEMOGLOBIN CONCENTRATION (72 h, time 3 day): 38.07 G/DL
- MEAN CORPUSCULAR VOLUME (72 h, time 3 day): 63.03 fL
- MONOCYTE (72 h, time 3 day): 2.33%
- NEUTROPHIL (72 h, time 3 day): 8.33%
- NUCLEATED RED BLOOD CELLS (72 h, time 3 day): 0 /100WBC
- PLATELET COUNT (72 h, time 3 day): 1205.67 x10E3/uL
- ALANINE AMINOTRANSFERASE (72 h, time 3 day): 50.33 u/L
- ALBUMIN (72 h, time 3 day): 4.1 G/DL
- ALKALINE PHOSPHATASE (72 h, time 3 day): 392.33 u/L
- ASPARTATE AMINOTRANSFERASE (72 h, time 3 day): 92 u/L
- BLOOD UREA NITROGEN (72 h, time 3 day): 15.67 mg/dL
- CARBON DIOXIDE (72 h, time 3 day): 24.33 mmol/L
- CHLORIDE (72 h, time 3 day): 104 MEQ/L
- CHOLESTEROL (72 h, time 3 day): 74.33 mg/dL
- CREATINE PHOSPHOKINASE (72 h, time 3 day): 345 u/L
- CREATININE (72 h, time 3 day): 0.17 mg/dL
- GLUCOSE (72 h, time 3 day): 165.33 mg/dL
- LACTATE DEHYDROGENASE (72 h, time 3 day): 421 u/L
- LIPASE (72 h, time 3 day): 9.67 u/L
- PHOSPHORUS (72 h, time 3 day): 14.47 mg/dL
- POTASSIUM (72 h, time 3 day): 6.65 MEQ/L
- SODIUM (72 h, time 3 day): 147.47 MEQ/L
- TOTAL BILIRUBIN (72 h, time 3 day): 0.17 mg/dL
- TOTAL PROTEIN (72 h, time 3 day): 5.77 G/DL
- URIC ACID (72 h, time 3 day): 1.8 mg/dL
- ABSOLUTE BASOPHIL (120 h, time 5 day): 0 CELLS/uL
- ABSOLUTE EOSINOPHIL (120 h, time 5 day): 0 CELLS/uL
- ABSOLUTE LYMPHOCYTE (120 h, time 5 day): 15703.33 CELLS/uL
- ABSOLUTE MONOCYTE (120 h, time 5 day): 57.67 CELLS/uL
- ABSOLUTE SEGMENTED NEUTROPHIL (120 h, time 5 day): 1439 CELLS/uL
- BASOPHIL (120 h, time 5 day): 0%
- EOSINOPHIL (120 h, time 5 day): 0%
- ERYTHROCYTE COUNT (120 h, time 5 day): 5.66 x10E6/uL
- HEMATOCRIT (120 h, time 5 day): 36.67%
- HEMOGLOBIN (120 h, time 5 day): 14.17 G/DL
- LEUKOCYTE COUNT (120 h, time 5 day): 17.2 x10E3/uL
- LYMPHOCYTE (120 h, time 5 day): 91.33%
- MEAN CORPUSCULAR HEMOGLOBIN (120 h, time 5 day): 25.07 pg
- MEAN CORPUSCULAR HEMOGLOBIN CONCENTRATION (120 h, time 5 day): 38.6 G/DL
- MEAN CORPUSCULAR VOLUME (120 h, time 5 day): 64.9 fL
- MONOCYTE (120 h, time 5 day): 0.33%
- NEUTROPHIL (120 h, time 5 day): 8.33%
- NUCLEATED RED BLOOD CELLS (120 h, time 5 day): 0 /100WBC
- PLATELET COUNT (120 h, time 5 day): 1456 x10E3/uL
- ALANINE AMINOTRANSFERASE (120 h, time 5 day): 55 u/L
- ALBUMIN (120 h, time 5 day): 4.43 G/DL
- ALKALINE PHOSPHATASE (120 h, time 5 day): 362 u/L
- ASPARTATE AMINOTRANSFERASE (120 h, time 5 day): 77.33 u/L
- BLOOD UREA NITROGEN (120 h, time 5 day): 17 mg/dL
- CARBON DIOXIDE (120 h, time 5 day): 29 mmol/L
- CHLORIDE (120 h, time 5 day): 100.33 MEQ/L
- CHOLESTEROL (120 h, time 5 day): 72 mg/dL
- CREATINE PHOSPHOKINASE (120 h, time 5 day): 162.67 u/L
- CREATININE (120 h, time 5 day): 0.18 mg/dL
- GLUCOSE (120 h, time 5 day): 160.33 mg/dL
- LACTATE DEHYDROGENASE (120 h, time 5 day): 160.67 u/L
- LIPASE (120 h, time 5 day): 10.33 u/L
- PHOSPHORUS (120 h, time 5 day): 14.4 mg/dL
- POTASSIUM (120 h, time 5 day): 6.83 MEQ/L
- SODIUM (120 h, time 5 day): 146.07 MEQ/L
- TOTAL BILIRUBIN (120 h, time 5 day): 0.2 mg/dL
- TOTAL PROTEIN (120 h, time 5 day): 6.17 G/DL
- URIC ACID (120 h, time 5 day): 1.7 mg/dL
